Each compound was assayed against T1, EP2 receptor (Homo sapiens, UniProt P43116) (assay: EP2 Potency Assay (cAMP TR-FRET, CHO-K1 cells transfected with EP2 receptor, PGE2 at EC80)). Conditions: CHO-K1 cells expressing EP2, prostaglandin E2 at EC80, read-out: EP2 Potency (IC50 category).
T1 construct: expressed in transfected cells; host or cells: CHO-K1 cells (ATCC), transient transfection with FuGENE 6
Assay type: cell-based
Protocol: Compound potency was measured using a cAMP TR-FRET assay.
After 6 hours incubation, the cell media was replaced with F12 medium supplemented with 10% FBS and 100 U/ml Pen-Strep. 24 hours after transfection, cells were harvested and seeded at a density of 3000 cells/well in a 384 well plate to perform the cAMP assay, using the LANCE Ultra cAMP assay kit (PerkinElmer).
Plates were then centrifuged at 1000 rpm for 1 min, agitated at 600 rpm at R.T. for 2 min, and incubated at 25° C. for 5 min. The reference agonist, prostaglandin E2 (MCE), was added to each well at the appropriate concentration to reach its EC80 value. Plates were then centrifuged at 1000 rpm for 1 min, agitated at 600 rpm at R.T. for 2 min, and incubated at 25° C. for 30 min.
A dose-response curve was prepared by plotting percent inhibition for each compound concentration, and then IC50 was calculated by fitting a curve to the plotted values and extrapolating the IC50 concentration.

T1 sequence (P43116 whole entry): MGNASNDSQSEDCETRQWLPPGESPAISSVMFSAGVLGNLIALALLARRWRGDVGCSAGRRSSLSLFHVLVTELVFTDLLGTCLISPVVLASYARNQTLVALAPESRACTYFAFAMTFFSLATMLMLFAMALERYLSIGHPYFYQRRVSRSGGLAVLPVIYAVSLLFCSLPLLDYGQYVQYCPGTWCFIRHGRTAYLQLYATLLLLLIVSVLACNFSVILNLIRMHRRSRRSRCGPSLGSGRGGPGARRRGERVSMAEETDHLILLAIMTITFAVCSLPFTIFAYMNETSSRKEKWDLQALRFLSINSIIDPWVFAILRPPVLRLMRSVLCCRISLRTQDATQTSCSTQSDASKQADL

IC50 | SMILES
> 5 µM | CC(C)(C)OC(=O)Nc1ccc(CN2CCOc3c(Cl)cc(-n4ccc5cc(F)ccc54)cc3C2)nn1 [Compound 168]
> 5 µM | Fc1ccc2c(ccn2-c2cc(Cl)c3c(c2)CN(Cc2cc[nH]c2)CCO3)c1 [Compound 86]
> 5 µM | COc1ncccc1CN1CCc2c(Cl)cc(-n3ccc4cc(F)ccc43)cc2C1 [Compound 223]
0.5 to 1 µM | COc1ncc(CN2CCOc3c(Cl)cc(N4CCc5cc(Cl)ccc54)cc3C2)cn1 [Compound 46, 9-chloro-7-(5-chloro-2,3-dihydroindol-1-yl)-4-[(2-methoxypyrimidin-5-yl)methyl]-3,5-dihydro-2H-1,4-benzoxazepine]
0.1 to 0.5 µM | NCc1ncc(CN2CCOc3c(Cl)cc(-n4ccc5cc(F)ccc54)cc3C2)cn1 [Compound 139, 1-(5-{[9-chloro-7-(5-fluoroindol-1-yl)-3,5-dihydro-2H-1,4-benzoxazepin-4-yl]methyl}pyrimidin-2-yl)methanamine]
1 to 5 µM | Cc1cc2cc(F)ccc2n1-c1cc(Cl)c2c(c1)CN(Cc1cnc(=O)[nH]c1)CCO2 [Compound 66]
1 to 5 µM | CN(C)C(=O)[C@H]1CC[C@@H](CN2CCOc3c(Cl)cc(-n4ccc5cc(F)ccc54)cc3C2)CC1 [Compound 129]
> 5 µM | COc1ncc(CN2CCOc3c(Cl)cc(N4CCS(=O)(=O)c5ccccc54)cc3C2)cn1 [Compound 53]
1 to 5 µM | COc1ncc(CN2CCOc3c(Cl)cc(-c4cccc5ccccc45)cc3C2)cn1 [Compound 54]
> 5 µM | CC(C)(C)OC(=O)Nc1cc(CN2CCOc3c(Cl)cc(-n4ccc5cc(F)ccc54)cc3C2)ccn1 [Compound 178]
0.5 to 1 µM | COc1nccc(CN2Cc3cc(-n4ccc5cc(F)ccc54)cc(Cl)c3OC[C@H]2C)n1 [Compound 10]
0.1 to 0.5 µM | O=c1ccc(CN2CCOc3c(Cl)cc(-n4ccc5cc(F)ccc54)cc3C2)c[nH]1 [Compound 175]
> 5 µM | COc1ccc2c(ccn2-c2cc(Cl)c3c(c2)CN(Cc2cnc(OC)nc2)CCO3)c1 [Compound 19]
0.5 to 1 µM | O=C(O)[C@H]1CC[C@H](CN2CCOc3c(Cl)cc(-n4ccc5cc(F)ccc54)cc3C2)CC1 [Compound 131]
0.5 to 1 µM | O=c1ncc(CN2CCOc3c(Cl)cc(-n4ccc5c(F)c(Cl)ccc54)cc3C2)c[nH]1 [Compound 65]
0.5 to 1 µM | COc1ncc(CN2CCOc3c(Cl)cc(-c4ncc5cc(Cl)ccn45)cc3C2)cn1 [Compound 41, 9-chloro-7-{7-chloroimidazo[1,5-a]pyridin-3-yl}-4-[(2-methoxypyrimidin-5-yl)methyl]-3,5-dihydro-2H-1,4-benzoxazepine]
> 5 µM | COc1ncc(CN2CCOc3c(Cl)cc(-n4ccc5cc(Cl)ncc54)cc3C2)cn1 [Compound 35]
1 to 5 µM | Fc1ccc2c(ccn2-c2cc(Cl)c3c(c2)CN(Cc2cnc(Cl)cn2)CCO3)c1 [Compound 173]
> 5 µM | Fc1ccc2c(ccn2-c2cc(Cl)c3c(c2)CN(Cc2cccs2)CCO3)c1 [Compound 91]
> 5 µM | CN(C)c1ccc2c(ccn2-c2cc(Cl)c3c(c2)CN(Cc2cnc(=O)[nH]c2)CCO3)c1 [Compound 61]

IC50 | SMILES
1 to 5 µM | Nc1cc(CN2CCOc3c(Cl)cc(-n4ccc5cc(F)ccc54)cc3C2)ccn1 [Compound 179, 4-{[9-chloro-7-(5-fluoroindol-1-yl)-3,5-dihydro-2H-1,4-benzoxazepin-4-yl]methyl}pyridin-2-amine]
> 5 µM | COc1cc(CN2CCOc3c(Cl)cc(-n4ccc5cc(F)ccc54)cc32)ccn1 [Compound 224]
> 5 µM | O=c1cc(CN2Cc3cc(-n4ccc5cc(F)ccc54)cc(Cl)c3OCC2C2CC2)cc[nH]1 (stereo not shown) [Compound 231]
1 to 5 µM | COc1ncc(CN2CCOc3c(Cl)cc(N4Cc5ccc(F)cc5C4)cc3C2)cn1 [Compound 47, 9-chloro-7-(5-fluoro-1,3-dihydroisoindol-2-yl)-4-[(2-methoxypyrimidin-5-yl)methyl]-3,5-dihydro-2H-1,4-benzoxazepine]
< 0.1 µM | COC(=O)c1ncc(CN2CCOc3c(Cl)cc(-n4ccc5cc(F)ccc54)cc3C2)cn1 [Compound 145, Methyl 5-{[9-chloro-7-(5-fluoroindol-1-yl)-3,5-dihydro-2H-1,4-benzoxazepin-4-yl]methyl}pyrimidine-2-carboxylate]
> 5 µM | COc1ncc(CN2CCOc3c(Cl)cc(N4CCOc5cc(F)ccc54)cc3C2)cn1 [Compound 51, 9-chloro-7-(7-fluoro-2,3-dihydro-1,4-benzoxazin-4-yl)-4-[(2-methoxypyrimidin-5-yl)methyl]-3,5-dihydro-2H-1,4-benzoxazepine]
> 5 µM | COc1cc(CN2CCOc3c(Cl)cc(-n4ccc5cc(F)ccc54)cc3C2)cc(OC)n1 [Compound 197]
> 5 µM | COc1ncc(CN2CCOc3c(Cl)cc(N4CCSc5ccccc54)cc3C2)cn1 [Compound 52]
> 5 µM | Oc1cccc(CN2CCOc3c(Cl)cc(-n4ccc5cc(F)ccc54)cc3C2)c1 [Compound 120]
1 to 5 µM | CNC(=O)[C@H]1CC[C@@H](CN2CCOc3c(Cl)cc(-n4ccc5cc(F)ccc54)cc3C2)CC1 [Compound 128, cis-4-{[9-chloro-7-(5-fluoroindol-1-yl)-3,5-dihydro-2H-1,4-benzoxazepin-4-yl]methyl}-N-methylcyclohexane-1-carboxamide]
> 5 µM | COc1ncc(CN2CCOc3c(Cl)cc(-n4ccc5cc(F)c(Cl)cc54)cc3C2)cn1 [Compound 28]
> 5 µM | Fc1ccc2c(ccn2-c2cc(Cl)c3c(c2)CN(Cc2ccc(C(F)F)cc2)CCO3)c1 [Compound 124]
> 5 µM | COc1ncc(CN2CCOc3c(Cl)cc(N4CCCc5cc(F)ccc54)cc3C2)cn1 [Compound 49, 9-chloro-7-(6-fluoro-3,4-dihydroquinolin-1(2H)-yl)-4-((2-methoxypyrimidin-5-yl)methyl)-2,3,4,5-tetrahydrobenzo[f][1,4]oxazepine]
> 5 µM | CC(C)(C)OC(=O)Nc1cnc(CN2CCOc3c(Cl)cc(-n4ccc5cc(F)ccc54)cc3C2)cn1 [Compound 171]
> 5 µM | Fc1ccc2c(ccn2-c2cc(Cl)c3c(c2)CN(Cc2ccccc2C(F)F)CCO3)c1 [Compound 122, 9-chloro-4-(2-(difluoromethyl)benzyl)-7-(5-fluoro-1H-indol-1-yl)-2,3,4,5-tetrahydrobenzo[f][1,4]oxazepane]
> 5 µM | O=c1ncc(CN2CCOc3c(Cl)cc(-n4ccc5cncnc54)cc3C2)c[nH]1 [Compound 77]
1 to 5 µM | COc1ncc(CN2CCOc3c(Cl)cc(-n4ccc5c4CCCC5)cc3C2)cn1 [Compound 44, 9-chloro-4-[(2-methoxypyrimidin-5-yl)methyl]-7-(4,5,6,7-tetrahydroindol-1-yl)-3,5-dihydro-2H-1,4-benzoxazepine]
> 5 µM | COc1ncc(CN2CCOc3c(Cl)cc(-n4ccc5nccnc54)cc3C2)cn1 [Compound 43]
0.5 to 1 µM | O=c1ncc(CN2CCOc3c(Cl)cc(-c4ncc5ccccn45)cc3C2)c[nH]1 [Compound 75]
0.1 to 0.5 µM | Fc1ccc2c(ccn2-c2cc(Cl)c3c(c2)CN(Cc2cnc(NC4COC4)nc2)CCO3)c1 [Compound 149, 5-{[9-chloro-7-(5-fluoroindol-1-yl)-3,5-dihydro-2H-1,4-benzoxazepin-4-yl]methyl}-N-(oxetan-3-yl)pyrimidin-2-amine]
